Experimental data published in patent publication US6682753B2, “Methods for promoting weight gain using GPE-related compounds” (NeuronZ Limited, priority 2001, dated 2004).

B1: BDNF: brain-derived neurotrophic factor (BDNF) (protein, UniProt P23560 19-247, looked up)
Neurotrophic factor BDNF …: APMKEANIRGQGGLAYPGVRTHGTLESVNGPKAGSRGLTSLADTFEHVIEELLDEDQKVRPNEENNKDADLYTSRVMLSSQVPLEPPLLFLLEEYKNYLDAANMSMRVRRHSDPARRGELSVCDSISEWVTAADKKTAVDMSGGTVTVLEKVPVSKGQLKQYFYETKCNPMGYTKEGCRGIDKRHWNSQCRTTQSYVRALTMDSKKRIGWRFIRIDTSCVCTLTIKRGR
B2: GDNF: glial-derived neurotrophic factor (GDNF) (protein, UniProt P39905 78-211, looked up)
Glial cell line-derived …: SPDKQMAVLPRRERNRQAAAANPENSRGKGRRGQRGKNRGCVLTAIHLNVTDLGLGYETKEELIFRYCSGSCDAAETTYDKILKNLSRNRRLVSDKVGQACCRPIAFDDDLSFLDDNLVYHILRKHSAKRCGCI

How the values were obtained:
[1] = Weight gain in human patient suffering from a head injury, central administration (Examples 2-4); format: in vivo; conditions: 14 days
Method: GPE in a dose of 10 μg/Kg/day is administered via lateral cerebroventricular injection into the brain of a human patient suffering from a head injury to promote weight gain to normal levels. Alternatively, a GPE analog is administered. Treatment is commenced as soon as possible after the head injury and then for 14 days thereafter.
A GPE analog in a dose of 20 μg/Kg/day is administered via focal injection into the lateral cerebral ventricle of a human patient suffering from a head injury to promote weight gain to normal levels. Alternatively, GPE is administered. Treatment is commenced as soon as possible after the head injury and then for 14 days thereafter.
GPE in a dose of 5 μg/Kg/day is administered via a surgically inserted shunt into the lateral cerebral ventricle of a human patient suffering from a head injury to promote weight gain to normal levels. Alternatively, a GPE analog is administered. Treatment is commenced as soon as possible after the head injury and then for 14 days thereafter.

[2] = Body weight gain over 14 days in rats after unilateral fimbria-fornix lesion with daily intracerebroventricular infusion; format: in vivo, male Wistar rats; conditions: lesioned rats; daily icv infusion of 2 μL for 14 days: GPE 3 μg/day, IGF-I 20 μg/day, NGF 1 μg/day
Source text: A group of male Wistar rats weighing 174-193 g (University of Auckland, Animal Resources Unit) were divided randomly into the following groups: “control”, “sham”, “vehicle”, “GPE”, “IGF-I”, and “NGF”, depending on the treatment each animal was to undergo. “Control” animals were weighed at the first and last time points and were not treated or handled at any other time. “Sham” animals underwent a sham surgery of anesthesia, incision through the scalp skin, drill hole through the skull, bone wax to seal the drill hole, and sutures for the skin incision. They were then handled daily in mock infusions to mimic handling of animals that received lesions and intracerebroventricular infusions.
“Vehicle”, “GPE”, “IGF-I”, and “NGF” animals were anaesthetized with 75 mg/Kg sodium pentobarbital and positioned in a stereotaxic apparatus (Kopf Instruments, USA), and underwent unilateral fimbria-fomix lesions to lesion septal cholinergic neurons and chronic cannula implantation into the left lateral cerebral ventricle. Fomix-fimbria lesions were performed by transecting the fimbria-fornix projection using a specialized retractable wire Scouten knife (Kopf Instruments) designed to minimize tissue damage except at the required lesion site. Anaesthetized animals received an incision through their scalp skin and a small drill hole was made in the skull at the stereotaxic coordinates anterior-posterior (AP) axis−1.0 mm from the bregma and medial-lateral (ML) axis+2.5 mm from midline (left side), from an atlas of the rat brain (Paxinos et al. (1986), “The rat brain in stereotaxic coordinates”, Academic Press, London). The knife was lowered into the brain through the drill hole to the coordinate+6.0 mm ventral to the skull on the dorsal-ventral (DV) axis. The knife blade was then extended 2.5 mm toward midline at an angle of 30° caudal to the bregma. The knife, with blade extended, was then raised 4.5 mm dorsally to axotomize the fimbria-fomix fibres. The blade was then retracted, the knife lowered 4.5 mm to its original coordinate, and the process was repeated. […]

[3] = administered into the brain following transient ischemia to the forebrain, adult rats; cited from earlier work
[4] = infused in the brain of adult rats after partial or full lesions (e.g. partial fimbria-fornix transection); cited from earlier work

| Molecule | weight gain over the 14 days [2] | effect on body weight gain [4] | also measured |
| --- | --- | --- | --- |
| NCC(=O)N1CCC[C@H]1C(=O)N[C@@H](CCC(=O)O)C(=O)O [GPE, glycyl-L-prolyl-L-glutamic acid] | the normally expected weight gain occurred |  | weight gain in patient ([1]; 5 μg/Kg/day via surgically inserted shunt into the lateral cerebral ventricle): Normal weight gain is promoted; weight gain in patient ([1]; 10 μg/Kg/day via lateral cerebroventricular injection): Normal weight gain is promoted; weight gain in patient ([1]; 20 μg/Kg/day via focal injection into the lateral cerebral ventricle): Normal weight gain is promoted |
| IGF-I: insulin-like growth factor I (IGF-I) | minimal weight gain |  | effect on body weight [3]: cause weight gain |
| NGF: Nerve growth factor (NGF) | no weight gain | either decrease normal body weight gain or cause weight loss |  |
| bFGF: basic fibroblast growth factor (bFGF) |  | either decrease normal body weight gain or cause weight loss |  |
| B1 |  | either decrease normal body weight gain or cause weight loss |  |
| B2 |  | either decrease normal body weight gain or cause weight loss |  |
